Measurements taken from US9790169B2, “IDO inhibitors” (BRISTOL-MYERS SQUIBB COMPANY, priority 2015, dated 2017).

Target: human IDO1 (Homo sapiens, UniProt P14902)
Experiment: Assessment of human IDO-1 inhibitory activity in Hela cells (Interferon-gamma stimulated HeLa cells, Ehrlich reagent, absorbance 490 nm)
Format: cell-based
Parameters: endogenous in cells; host or cells: HeLa cells stimulated with interferon-gamma
Settings: Hela Human IDO-1 cellular assay
In short: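 HeLa cells pre-incubated with compound 1 h at 37 °C, then stimulated with human IFN-γ (10 ng/ml final) or murine IFN-γ (5 ng/ml final) for 18 h. Kynurenine read with Ehrlich reagent at 490 nm after TCA (3%) and 50 °C treatment; IC50 normalized to unstimulated (100%) and IFN-γ-only (0%) wells.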

human IDO1, sequence (P14902 whole entry): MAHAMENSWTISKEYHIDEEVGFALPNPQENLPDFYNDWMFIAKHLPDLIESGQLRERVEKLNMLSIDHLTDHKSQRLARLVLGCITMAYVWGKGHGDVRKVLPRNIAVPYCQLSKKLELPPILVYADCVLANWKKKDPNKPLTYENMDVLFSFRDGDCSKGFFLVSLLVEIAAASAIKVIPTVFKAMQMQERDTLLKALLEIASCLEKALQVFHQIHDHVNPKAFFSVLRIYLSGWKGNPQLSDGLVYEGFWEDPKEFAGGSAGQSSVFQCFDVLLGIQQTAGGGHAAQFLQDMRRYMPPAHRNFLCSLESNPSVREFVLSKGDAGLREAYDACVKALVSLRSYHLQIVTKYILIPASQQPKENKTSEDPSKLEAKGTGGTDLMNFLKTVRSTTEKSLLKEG

Molecule | IC50
CCc1ncc(Nc2cc([C@H](CC)CC(=O)O)ccc2N(CC)C2CCOCC2)cn1 (single isomer, unassigned) [Example 1364] | < 5 nM
CCCN(c1ccc([C@@H](CC)CC(=O)O)cc1NC(=O)Nc1ccc(Cl)cc1F)C1CCOCC1 (single isomer, unassigned) [Example 544] | < 5 nM
CCN(c1ccc(C(C)CC(=O)O)cc1Nc1cnc(OC)nc1)C1CCOCC1 (single isomer, unassigned) [Example 620, 3-(4-(ethyl(tetrahydro-2H-pyran-4-yl)amino)-3-((2-methoxypyrimidin-5-yl)amino)phenyl)butanoic acid] | < 50 nM
CC[C@@H](CC(=O)O)c1ccc(N(CC)C2CCOCC2)c(Nc2cnc(C)nc2)c1 (single isomer, unassigned) [Example 1361] | < 5 nM
CCC(CC(=O)O)c1ccc(N(CC)C2CCOC2)c(NC(=O)Nc2ccc(Cl)cc2F)c1 (single isomer, unassigned) [Example 946 D2, 3-(3-(3-(4-Chloro-2-fluorophenyl)ureido)-4-(ethyl(tetrahydrofuran-3-yl)amino)phenyl)pentanoic acid] | < 5 nM
CCN(c1ccc([C@H](CC(=O)O)C(F)(F)F)cc1NC(=O)Nc1ccc(C#N)cc1)C1CCOCC1 (single isomer, unassigned) [Example 1268] | > 50 nM
COCC(CC(=O)O)c1ccc(N(C)C2CCOCC2)c(Nc2ccc(Cl)cc2)c1 (single isomer, unassigned) [Example 884, 3-(3-((4-chlorophenyl)amino)-4-(methyl(tetrahydro-2H-pyran-4-yl)amino)phenyl)-4-methoxybutanoic acid] | < 5 nM
CCOc1ccc(Nc2cc([C@H](CC)CC(=O)O)ccc2N(CC)C2CCOCC2)cn1 (single isomer, unassigned) [Example 509] | < 5 nM
COCC(CC(=O)O)c1ccc(N(CC2CC2)C2CCOCC2)c(Nc2ccc(C(N)=O)nc2)c1 (single isomer, unassigned) [Example 693, 3-(3-((6-carbamoylpyridin-3-yl)amino)-4-((cyclopropylmethyl) (tetrahydro-2H-pyran-4-yl)amino)phenyl)-4-methoxybutanoic acid] | > 50 nM
CCC1COCCN1c1ccc([C@@H](COC)CC(=O)O)cc1Nc1ccc(F)cc1 (single isomer, unassigned) [Example 1301] | > 50 nM
CCC(CC(=O)O)c1ccc(N(CC(F)F)C2CCOCC2)c(Nc2ccc(Cl)cc2)c1 (single isomer, unassigned) [Example 318 Enantiomer 1, 3-(3-((4-Chlorophenyl)amino)-4-((2,2-difluoroethyl)(tetrahydro-2H-pyran-4-yl)amino)phenyl)pentanoic acid] | < 5 nM
CCOc1ccc(Nc2cc(C(COC)CC(=O)O)cc(F)c2N(CC(C)C)CC(C)C)cc1 (single isomer, unassigned) [Example 923, 3-(4-(diisobutylamino)-3-((4-ethoxyphenyl)amino)-5-fluorophenyl)-4-methoxybutanoic acid] | < 50 nM
COCCN(c1ccc(C(C)(C)CC(=O)O)cc1Nc1ccc(Cl)cc1)C1CCOCC1 [Example 15, 3-(3-((4-Chlorophenyl)amino)-4-((2-methoxyethyl)(tetrahydro-2H-pyran-4-yl)amino)phenyl)-3-methylbutanoic acid] | < 5 nM
CCOc1ncc(Nc2cc(C(CC)CC(=O)O)ccc2N(CCOC)C2CCOCC2)cn1 (single isomer, unassigned) [Example 1260, 3-(3-((2-ethoxypyrimidin-5-yl)amino)-4-((2-methoxyethyl)(tetrahydro-2H-pyran-4-yl)amino)phenyl)pentanoic acid] | < 50 nM
CCOc1ncc(Nc2cc(C(CC)CC(=O)O)ccc2N(CC)C2CCOC2)cn1 (single isomer, unassigned) [Example 945 D1, 3-(3-((2-Ethoxypyrimidin-5-yl)amino)-4-(ethyl(tetrahydrofuran-3-yl)amino)phenyl)pentanoic acid] | < 50 nM
COCC(CC(=O)O)c1ccc(N2CCOC(C)(C)C2)c(Nc2ccc(C#N)cc2)c1 (single isomer, unassigned) [Example 1316, 3-(3-((4-cyanophenyl)amino)-4-(2,2-dimethylmorpholino)phenyl)-4-methoxybutanoic acid] | > 50 nM
CCN(c1cc(F)c(C(COC)CC(=O)O)cc1NC(=O)Nc1ccc(Cl)cc1F)C1CCOCC1 (single isomer, unassigned) [Example 855, 3-(5-(3-(4-Chloro-2-fluorophenyl)ureido)-4-(ethyl(tetrahydro-2H-pyran-4-yl)amino)-2-fluorophenyl)-4-methoxybutanoic acid] | < 50 nM
CCCN(c1ccc([C@@H](COC)CC(=O)O)cc1NC(=O)Nc1ccc(Cl)cc1F)C1CCOCC1 (single isomer, unassigned) [Example 566] | < 50 nM
CCCN(c1ccc([C@H](COC)CC(=O)O)cc1Nc1ccc(Cl)cc1)C1CCOCC1 (single isomer, unassigned) [Example 574] | < 5 nM

Molecule | IC50
CCC(CC(=O)O)c1ccc(N(CCOC)C2CCOCC2)c(Nc2ccc(Cl)cc2)c1 (single isomer, unassigned) [Example 1257 E1, 3-(3-((4-Chlorophenyl)amino)-4-((2-methoxyethyl)(tetrahydro-2H-pyran-4-yl)amino)phenyl)pentanoic acid] | < 5 nM
COCC(CC(=O)O)c1ccc(N2CCOC[C@@H]2C(C)C)c(Nc2ccc(Cl)cc2)c1 (single isomer, unassigned) [Example 934] | > 50 nM
CC[C@H](CC(=O)O)c1ccc(N(CC)C2CCOCC2)c(Nc2ccc(S(=O)(=O)CC)cc2)c1 (single isomer, unassigned) [Example 525] | < 50 nM
COCC(CC(=O)O)c1ccc(N(C)C2CCOCC2)c(Nc2ccc(Cl)cc2)c1 (single isomer, unassigned) [Example 877, 3-(3-((4-chlorophenyl)amino)-4-(methyl(tetrahydro-2H-pyran-4-yl)amino)phenyl)-4-methoxybutanoic acid] | > 50 nM
CC(CC(=O)O)c1ccc(N2C[C@@H](C)O[C@@H](C)C2)c(NC(=O)Nc2ccc(C#N)cc2)c1 (single isomer, unassigned) [Example 750] | > 50 nM
CCOc1ncc(Nc2cc(C(CC)CC(=O)O)ccc2N2CCOCC2)cn1 (single isomer, unassigned) [Example 7 Enantiomer 2, 3-(3-((2-Ethoxypyrimidin-5-yl)amino)-4-morpholinophenyl)pentanoic acid] | > 50 nM
CCN(c1ccc(C(CC(=O)O)C2CC2)cc1NC(=O)Nc1ccc(C)cc1)C1CCOCC1 (single isomer, unassigned) [Example 40 Enantiomer 2, 3-Cyclopropyl-3-(4-(ethyl(tetrahydro-2H-pyran-4-yl)amino)-3-(3-(p-tolyl)ureido)phenyl)propanoic acid] | < 50 nM
CC[C@@H](CC(=O)O)c1ccc(N(CC)C2CCOCC2)c(Nc2cnc(N(C)C)nc2)c1 (single isomer, unassigned) [Example 459] | < 50 nM
CCOc1ncc(Nc2cc(C(CC)CC(=O)O)cnc2N(CC(C)C)CC(C)C)cn1 (racemic) [Example 1376, (+/−)-3-(6-(Diisobutylamino)-5-((2-ethoxypyrimidin-5-yl)amino)pyridin-3-yl)pentanoic acid] | < 5 nM
CCOc1ncc(Nc2cc([C@H](CC)CC(C)(C)O)ccc2N(CC)C2CCOCC2)cn1 (single isomer, unassigned) [Example 1368] | > 50 nM
CCN(c1ccc(C(CC)(CC)CC(=O)O)cc1Nc1ccc(C#N)cc1)C1CCOCC1 [Example 27, 3-(3-((4-cyanophenyl)amino)-4-(ethyl(tetrahydro-2H-pyran-4-yl)amino)phenyl)-3-ethylpentanoic acid] | < 5 nM
3-(4-((1,1-dioxidotetrahydro-2H- thiopyran-4-yl)(ethyl)amino)-3- ((4-fluorophenyl)amino)phenyl)- 4-isopropoxybutanoic acid [Example 340] | < 50 nM
CCN(c1ccc(C(CC)(CC)CC(=O)O)cc1NC(=O)Nc1ccc(C#N)cc1)C1CCOCC1 [Example 31, 3-(3-(3-(4-cyanophenyl)ureido)-4-(ethyl(tetrahydro-2H-pyran-4-yl)amino)phenyl)-3-ethylpentanoic acid] | < 50 nM
COCCN(c1ccc(C(C)(C)CC(=O)O)cc1NC(=O)Nc1ccc(Cl)cc1F)C1CCOCC1 [Example 20, 3-(3-(3-(4-chloro-2-fluorophenyl)ureido)-4-((2-methoxyethyl)(tetrahydro-2H-pyran-4-yl)amino)phenyl)-3-methylbutanoic acid] | < 50 nM
Cc1ccc(NC(=O)Nc2cc(C(CC(=O)O)C3CC3)ccc2N2C[C@@H](C)O[C@@H](C)C2)cc1 (single isomer, unassigned) [Example 251 Enantiomer 1] | > 50 nM
CCCN(c1ccc(C(C)(C)CC(=O)O)cc1Nc1cnc(OC)nc1)C1CCOCC1 [Example 23, 3-(3-((2-methoxypyrimidin-5-yl)amino)-4-(propyl(tetrahydro-2H-pyran-4-yl)amino)phenyl)-3-methylbutanoic acid] | < 50 nM
CCC(CC(=O)O)c1cc(F)c(N(CC)C2CCOCC2)c(Nc2ccc(OC)nc2)c1 (single isomer, unassigned) [Example 142, 3-(4-(ethyl(tetrahydro-2H-pyran-4-yl)amino)-3-fluoro-5-((6-methoxypyridin-3-yl)amino)phenyl) pentanoic acid] | < 5 nM
CCN(c1ccc(C(C)CC(=O)O)cc1Nc1cnc(OC(C)C)nc1)C1CCOCC1 (single isomer, unassigned) [Example 622, 3-(4-(ethyl(tetrahydro-2H-pyran-4-yl)amino)-3-((2-isopropoxypyrimidin-5-yl)amino)phenyl)butanoic acid] | > 50 nM
COCC(CC(=O)O)c1cc(F)c(N(CC(C)C)CC(C)C)c(Nc2ccc3nc(C)sc3c2)c1 (single isomer, unassigned) [Example 925, 3-(4-(diisobutylamino)-3-fluoro-5-((2-methylbenzo [d]thiazol-6-yl)amino)phenyl)-4-methoxybutanoic acid] | < 50 nM
